Data published in patent publication US11458189B2, “Cytoprotective drugs” (BALMES TRANSPLANTATION, priority 2017, dated 2022).
Starred links: 1 amine or outer side, 2 acyl side, 3 side chain; linkers in the order of their positions; H or OH if unused. Positions of bridges follow the written chain, without caps; N, C: chain ends. Non-standard residues stand in square brackets, D forms with d. Residues, ends and D or L forms follow the SMILES beside them. *: point of attachment. hTyr(3S-OH,4S-OH,3'-OSO3H) = N[C@H](C(=O)O)[C@H](O)[C@@H](O)c1ccc(O)c(OS(=O)(=O)O)c1; Orn(4R-OH,5R-OH) = O=C([C@H](C[C@@H](O)[C@@H](O)N[*:3])N[*:1])[*:2]; Pro(3S-OH,4S-Me) = C[C@H]1CN[C@H](C(=O)O)[C@H]1O; X1 = CCCCCOc1ccc(-c2cc(-c3ccc(C(=O)*)cc3)no2)cc1; Gln(3R-OH) = NC(=O)C[C@@H](O)[C@H](N)C(=O)O; Hyp = O=C(O)[C@@H]1C[C@@H](O)CN1

Tested on: Human Astrocytes (HA)
Test: Oxygen and glucose deprivation followed by replenishment, cell survival (calcein AM), HA
Format: cell-based
Description: Anidulafungin and micafungin were tested on Human Renal Glomerular Endothelial Cells (HRGEC, Innoprot P10665), on Human Renal Proximal Tubular Epithelial Cells (HRPTEpiC, Innoprot P10662), on Human Astrocytes (HA, caltag SC-1800), on Human Cardiac Microvascular Endothelial Cells (HCMEC, Caltag SC-6000), on Human Hepatic Sinusoidal Endothelial Cells (HHSEC, Caltag SC-5000), on Rat Primary Kidney Glomerular Endothelial cells (Cellbiologics, RN-6014G) and on Bovine Brain Microvascular Endothelial Cells (BBMEC, Caltag SC-B100).
In a first phase, these isolated, purified and cryopreserved cells are thawed and multiplied according to the supplier's recommendations in T75 or T175 flasks pre-coated with 2 μg of fibronectin/[…] (CORNING) for HRGEC, HCMEC, HHSEC and BBMEC, or 2 μg poly-L-lysin/cm^2 (Caltag SC-0403) for HRPTEpiC and HA, or 15 mL/flask 175 cm^2 gelatin-based solution (Cellbiologics) in the presence of endothelial cell supplemented growth medium ECM (P60104, INNOPROT, Caltag, SC-1001) for HRGEC, HCMEC, HHSEC, RPKGEC or BBMEC, or astrocyte cell supplemented growth medium AM (Caltag SC-1801) for HA or epithelial cell supplemented growth medium EpiCM (P60106, INNOPROT) for HRPTEpiC, at 37° C. under 5% CO2 and saturated humidity until their confluency. They are then harvested by trypsinization according to the method described by the supplier for exactly 5 minutes and then reseeded in new flasks a maximum of three times.
To carry out the oxygen and glucose deprivation test followed by their replenishment, the cells will be seeded in 96-well black plates with transparent flat bottom (GREINER). Once a sufficient number of cells has been obtained to allow seeding of 2000 to 15000 cells per well of 96-well plates depending on the cell type, the cells are seeded in these 96-well plates previously coated with an extracellular matrix as listed above for the flasks. The cells are cultured for 5 to 8 days according to the cell type, in the presence of the same growth medium as in the flask as described above except for HRGEC and HRPTEpiC for which DMEM (DUTSCHER) with 1 g/L of supplemented glucose is used, at 37° C. under 5% CO2 and saturated humidity to obtain confluency.
On the first day of oxygen and glucose deprivation, (5th, 6th, 7th or 8th day of culture), the culture conditions are drastically changed. The medium of all plates is removed and replaced by DMEM (DUTSCHER) medium without glucose and supplemented only with 1% penicillin-streptomycin (DUTSCHER). Anidulafungin or micafungin dissolved in dimethyl sulfoxide (DMSO) is then added to each well at the desired concentration, resulting in a maximum of 1% DMSO, and the plates are placed under hypoxia at <1% 02 and 5% CO2 at 37° C. for 24 hours of culture. Each compound was tested in a concentration range.
After 24 hours, the growth medium is changed and replaced by a richer medium, DMEM (DUTSCHER) at 1 g/L glucose and 2% FBS (INNOPROT) and 1% penicillin-streptomycin (DUTSCHER). These media will have been pre-equilibrated at 37° C. in advance. The cells are then returned to culture at 37° C. under 20% 02 and 5% CO2 for 22h.
After 22 hours of reoxygenation, the potential protective effect of anidulafungin or micafungin is measured by a cell viability test using calcein AM (CORNING), which is a dye substrate. The calcein AM can easily cross the cell membrane of the viable cells. The AM ester groups mask the part of the molecule that chelates calcium. Once inside the cells, the (non-fluorescent) calcein AM is hydrolyzed to (fluorescent) calcein by endogenous esterases. The resulting calcein molecule binds to calcium inside the cell and remains trapped inside the cell. These molecules emit strong green fluorescence when subjected to […] of a particular wavelength (495 nm). Since dead cells lack esterase activity, only living cells are labelled.
This cell viability test is performed in two steps. […]

CCCCCOc1ccc(-c2cc(-c3ccc(C(=O)N[C@H]4C[C@@H](O)[C@@H](O)NC(=O)[C@@H]5[C@@H](O)[C@@H](C)CN5C(=O)[C@H]([C@H](O)CC(N)=O)NC(=O)[C@H]([C@H](O)[C@@H](O)c5ccc(O)c(OS(=O)(=O)O)c5)NC(=O)[C@@H]5C[C@@H](O)CN5C(=O)[C@H]([C@@H](C)O)NC4=O)cc3)no2)cc1 [Micafungin, {5-[(1S,2S)-2-[(3S,6S,9S,11R,15S,18S,20R,21R,24S,25S,26S)-3-[(1R)-2-carbamoyl-1-hydroxyethyl]-11,20,21,25-tetrahydroxy-15-[(1R)-1-hydroxyethyl]-26-methyl-2,5,8,14,17,23-hexaoxo-18-[(4-{5-[4-(pentyloxy)phenyl]-1,2-oxazol-3-yl}benzene)amido]-1,4,7,13,16,22-hexaazatricyclo[22.3.0.0]heptacosan-6-yl]-1,2-dihydroxyethyl]-2-hydroxyphenyl}oxidanesulfonic acid] (X1-[Orn(4R-OH,5R-OH)]T[Hyp][hTyr(3S-OH,4S-OH,3'-OSO3H)][Gln(3R-OH)][Pro(3S-OH,4S-Me)]; lactam 1-C)
Globalfluo assay 1 ([Micafungin] log μM 0): 11119980 arbitrary units | Globalfluo assay 2 ([Micafungin] log μM 0): 10122420 arbitrary units | Globalfluo assay 3 ([Micafungin] log μM 0): 9942897 arbitrary units | Mean globalfluo ([Micafungin] log μM 0): 10395099 arbitrary units | Survival rate (%) ([Micafungin] log μM 0): 2% | Globalfluo assay 1 ([Micafungin] log μM 0.4771213): 10184240 arbitrary units | Globalfluo assay 2 ([Micafungin] log μM 0.4771213): 11122790 arbitrary units | Globalfluo assay 3 ([Micafungin] log μM 0.4771213): 12211830 arbitrary units | Mean globalfluo ([Micafungin] log μM 0.4771213): 11172953 arbitrary units | Survival rate (%) ([Micafungin] log μM 0.4771213): 6% | Globalfluo assay 1 ([Micafungin] log μM 0.7781513): 12145620 arbitrary units | Globalfluo assay 2 ([Micafungin] log μM 0.7781513): 12627660 arbitrary units | Globalfluo assay 3 ([Micafungin] log μM 0.7781513): 12964960 arbitrary units | Mean globalfluo ([Micafungin] log μM 0.7781513): 12579413 arbitrary units | Survival rate (%) ([Micafungin] log μM 0.7781513): 14% | Globalfluo assay 1 ([Micafungin] log μM 0.90309): 12128260 arbitrary units | Globalfluo assay 2 ([Micafungin] log μM 0.90309): 10787240 arbitrary units | Globalfluo assay 3 ([Micafungin] log μM 0.90309): 13139350 arbitrary units | Mean globalfluo ([Micafungin] log μM 0.90309): 12018283 arbitrary units | Survival rate (%) ([Micafungin] log μM 0.90309): 11% | Globalfluo assay 1 ([Micafungin] log μM 1): 15956640 arbitrary units | Globalfluo assay 2 ([Micafungin] log μM 1): 14291510 arbitrary units | Globalfluo assay 3 ([Micafungin] log μM 1): 16904820 arbitrary units | Mean globalfluo ([Micafungin] log μM 1): 15717657 arbitrary units | Survival rate (%) ([Micafungin] log μM 1): 32% | Globalfluo assay 1 ([Micafungin] log μM 1.079181): 12974980 arbitrary units | Globalfluo assay 2 ([Micafungin] log μM 1.079181): 13357070 arbitrary units | Globalfluo assay 3 ([Micafungin] log μM 1.079181): 13693180 arbitrary units | Mean globalfluo ([Micafungin] log μM 1.079181): 13341743 arbitrary units | Survival rate (%) ([Micafungin] log μM 1.079181): 18% | Globalfluo assay 1 ([Micafungin] log μM 1.176091): 15116230 arbitrary units | Globalfluo assay 2 ([Micafungin] log μM 1.176091): 14430130 arbitrary units | Globalfluo assay 3 ([Micafungin] log μM 1.176091): 15740520 arbitrary units | Mean globalfluo ([Micafungin] log μM 1.176091): 15095627 arbitrary units | Survival rate (%) ([Micafungin] log μM 1.176091): 28% | Globalfluo assay 1 ([Micafungin] log μM 1.30103): 11900350 arbitrary units | Globalfluo assay 2 ([Micafungin] log μM 1.30103): 13780590 arbitrary units | Globalfluo assay 3 ([Micafungin] log μM 1.30103): 15553770 arbitrary units | Mean globalfluo ([Micafungin] log μM 1.30103): 13744903 arbitrary units | Survival rate (%) ([Micafungin] log μM 1.30103): 21% | Globalfluo assay 1 ([Micafungin] log μM 1.477121): 14577460 arbitrary units | Globalfluo assay 2 ([Micafungin] log μM 1.477121): 14402140 arbitrary units | Globalfluo assay 3 ([Micafungin] log μM 1.477121): 13825080 arbitrary units | Mean globalfluo ([Micafungin] log μM 1.477121): 14268227 arbitrary units | Survival rate (%) ([Micafungin] log μM 1.477121): 24% | Globalfluo assay 1 ([Micafungin] log μM −0.5228788): 9708125 arbitrary units | Globalfluo assay 2 ([Micafungin] log μM −0.5228788): 10748420 arbitrary units | Globalfluo assay 3 ([Micafungin] log μM −0.5228788): 10103750 arbitrary units | Mean globalfluo ([Micafungin] log μM −0.5228788): 10186765 arbitrary units | Survival rate (%) ([Micafungin] log μM −0.5228788): 1% | Globalfluo assay 1 ([Micafungin] log μM −1): 12091240 arbitrary units | Globalfluo assay 2 ([Micafungin] log μM −1): 10337500 arbitrary units | Globalfluo assay 3 ([Micafungin] log μM −1): 9946542 arbitrary units | Mean globalfluo ([Micafungin] log μM −1): 10791761 arbitrary units | Survival rate (%) ([Micafungin] log μM −1): 4% | Globalfluo assay 1 ([Micafungin] log μM −2): 9536623 arbitrary units | Globalfluo assay 2 ([Micafungin] log μM −2): 9993250 arbitrary units | Globalfluo assay 3 ([Micafungin] log μM −2): 10712930 arbitrary units | Mean globalfluo ([Micafungin] log μM −2): 10080934 arbitrary units | Survival rate (%) ([Micafungin] log μM −2): 0%
